Values quoted from earlier work, collected in US20110039841A1, “Novel compounds, their preparation and use” (Novo Nordisk A/S, priority 2004, published 2011).

Tests used:
PPARδ = molecular target: T1, PPARδ (Mus musculus, UniProt P35396); settings: high fat diet induced insulin resistant mice and diabetic ob/ob; PNAS 2003, 100, 15924-15929
T1 construct: pharmacological treatment of both high fat diet induced insulin resistant mice and diabetic ob/ob with the potent PPARδ agonist GW501516; host or cells: mice (high fat diet induced insulin resistant; ob/ob), in vivo
T1 sequence (P35396 1-440): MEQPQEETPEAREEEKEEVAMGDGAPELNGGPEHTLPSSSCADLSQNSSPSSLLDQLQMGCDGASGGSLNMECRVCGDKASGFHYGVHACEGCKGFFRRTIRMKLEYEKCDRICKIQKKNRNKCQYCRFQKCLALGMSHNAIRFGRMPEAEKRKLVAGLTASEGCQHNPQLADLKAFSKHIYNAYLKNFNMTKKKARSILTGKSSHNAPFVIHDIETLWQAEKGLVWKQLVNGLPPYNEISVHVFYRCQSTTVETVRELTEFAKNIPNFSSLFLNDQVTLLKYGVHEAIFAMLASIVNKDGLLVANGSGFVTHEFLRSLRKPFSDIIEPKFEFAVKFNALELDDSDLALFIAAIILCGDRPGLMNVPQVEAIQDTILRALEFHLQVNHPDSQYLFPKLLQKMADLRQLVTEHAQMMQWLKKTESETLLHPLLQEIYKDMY

C2C12 muscle cells = settings: in vitro, BioChem. Biophys. Acta 2003, 1633, 43-50, Mol. Endocrin. 2003, 17, 2477-2493

Q: For `Cc1cc(SCc2sc(-c3ccc(C(F)(F)F)cc3)nc2C)ccc1OCC(=O)O` [GW501516], which “plasma glucose, insulin and insulin sensitivity” value (PPARδ) is on record?
A: lowering of plasma glucose and insulin and improved insulin sensitivity

Q: What about the “regulation of genes of lipid metabolism and energy expenditure” value (C2C12 muscle cells) of the same molecule?
A: regulation of genes involved with TG hydrolysis and FFA oxidation
